Laboratory results: patent publication US20190002480A1, “Silane-Containing Heterocyclic Compounds and Methods of Use Thereof for the Treatment of Viral Diseases” (Merck Sharp & Dohme Corp., priority 2015, published 2019)
Where two headings read alike, the source gives them in different places.

Key:
HCV replicon GT1a_Q30R = test: Cell-based HCV replicon assay, GT1a Q30R; details: Hepatitis C virus, 72 h, read-out: GT1a_Q30R EC90
Method: (§1) To measure cell-based anti-HCV activity of compounds of the present invention, two complimentary assays were employed using various replicons. In the first assay (“Replicon Assay A”), replicon cells were seeded at 2000 cells/well in 384-well 384-well flat bottom tissue culture treated clear bottom plate (Corning 3707) in the presence of the test compound. Various concentrations of test compound, typically in 10 serial dilutions, were added to the assay mixture, with the starting concentration ranging from 333.3 nM to […]. The final concentration of DMSO was 0.5%. Fetal bovine serum was 5%, in the assay media. Cells were harvested on day 3 by removing media and washing the cells with a suitable wash buffer. The cells are lysed with the addition of 1× Qiagen lysis buffer (Cat #1062731). The replicon RNA level was measured using real time PCR (TaqMan® EZ RT-PCR, Applied Biosystems 403028) with the following primers and probes: […]
(§2) Cyclophilin RNA was used as endogenous control and was amplified in the same reaction as NS5B (multiplex PCR). The real-time RT-PCR reactions were run on ABI PRISM 7900HT Sequence Detection System using the following program: 50° C. for 2 minutes, 60° C. for 30 minutes, 95° C. for 5 minutes, 40 cycles of 94 C for 20 sec, 55 C for 1 minutes.
(§3) The amount of HCV replicon RNA per cell is quantified using a linear regression curve for a known nanogram (ng) amount of HCV replicon total RNA. This is established by plotting the Cycle Threshold values (Ct) from the Neo probe and primer set versus the log (ng) for each HCV replicon total RNA standard. The amount of HCV RNA for each replicon sample is calculated by taking the sample's Ct value, minus the line intercept, divided by the slope of the line. Similarly, the amount of Cyclophilin mRNA per cell is also quantified using a linear regression curve for a known nanogram (ng) amount of HCV replicon total RNA. Again, this is established by plotting the Cycle Threshold values (Ct) from the Cyclophilin probe and primer set versus the log (ng) for each HCV replicon total RNA standard.
(§4) In an alternate assay (“Replicon Assay B”), 1000 cells were seeded per well in a 384-well collagen coated black plate from Greiner bio-one (Cat #781946) in 5% FBS. Inhibitors of this invention were added at 24 h post-seeding, and the plates were incubated for 3 days. Cells were subsequently lysed with Qiagen lysis buffer (Cat #1062731) to extract the RNA. HCV replicon RNA level was measured by real-time PCR using the RNA-to-CT kit from Applied Biosystem (Cat #4392656) and genotype-specific primers and probes. The amplicon was located within NS5B. The sequence of the PCR primers are as follows: 5B.2F, ATGGACAGGCGCCCTGA (SEQ. ID NO. 1); 5B.2R, […] (SEQ. ID NO. 2); the probe sequence was FAM-labeled CACGCCATGCGCTGCGG (SEQ. ID NO. 3). To detect genotype 1A the primer 1A F, TGCGGAACCGGTGAGTACA and 1A R, […] were used; the probe sequence was FAM-[…].
(§5) The real-time RT-PCR reactions were run on ABI PRISM 7900HT or Viia7 Sequence Detection System using the following program: 48° C. for 30 minutes, 95 C for 10 minutes, 40 cycles of 95 C for 15 sec, 60 C for 1 minutes. The 50% effective concentration (EC50) was the drug concentration necessary to achieve an increase in the cycle threshold (CT) of 1 over the projected baseline CT. The EC90 was the drug concentration necessary to achieve an increase in CT of 3.2 over the projected baseline CT.

HCV replicon GT1a_L31V = test: Cell-based HCV replicon assay, GT1a L31V; details: Hepatitis C virus, 72 h, read-out: GT1a_L31V EC90
Method: as §1, §2, §3, §4, §5

HCV replicon GT1a_Y93H = test: Cell-based HCV replicon assay, GT1a Y93H; details: Hepatitis C virus, 72 h, read-out: GT1a_Y93H EC90
Method: as §1, §2, §3, §4, §5

HCV replicon GT1b_WT = test: Cell-based HCV replicon assay, GT1b WT; details: Hepatitis C virus, 72 h, read-out: GT1b_WT EC90
Method: as §1, §2, §3, §4, §5

HCV replicon GT2a = test: Cell-based HCV replicon assay, GT2a; details: Hepatitis C virus, 72 h, read-out: GT2a EC90
Method: as §1, §2, §3, §4, §5

HCV replicon GT2b_31M = test: Cell-based HCV replicon assay, GT2b 31M; details: Hepatitis C virus, 72 h, read-out: GT2b_31M EC90
Method: as §1, §2, §3, §4, §5

HCV replicon GT3a_WT = test: Cell-based HCV replicon assay, GT3a WT; details: Hepatitis C virus, 72 h; replicon RNA level by real-time PCR, 3 days
Method: as §1, §2, §3, §4, §5

HCV replicon GT3a_Y93H = test: Cell-based HCV replicon assay, GT3a Y93H; details: Hepatitis C virus, 72 h, read-out: GT3a_Y93H EC90
Method: as §1, §2, §3, §4, §5

HCV replicon GT4 = test: Cell-based HCV replicon assay, GT4; details: Hepatitis C virus, GT4, 72 h; replicon RNA level by real-time PCR, 3 days
Method: as §1, §2, §3, §4, §5

HCV replicon GT5 = test: Cell-based HCV replicon assay, GT5; details: Hepatitis C virus, GT5, 72 h; replicon RNA level by real-time PCR, 3 days
Method: as §1, §2, §3, §4, §5

HCV replicon GT6 = test: Cell-based HCV replicon assay, GT6; details: Hepatitis C virus, GT6, 72 h; replicon RNA level by real-time PCR, 3 days
Method: as §1, §2, §3, §4, §5

HCV replicon Gt1a_WT = test: Cell-based HCV replicon assay, GT1a WT; details: Hepatitis C virus, 72 h; replicon RNA level by real-time PCR, 3 days
Method: as §1
(§6) The amount of HCV replicon RNA per cell is quantified using a linear regression curve for a known nanogram (ng) amount of HCV replicon total RNA. […] The amount of HCV RNA for each replicon sample is calculated by taking the sample's Ct value, minus the line intercept, divided by the slope of the line. Similarly, the amount of Cyclophilin mRNA per cell is also quantified using a linear regression curve for a known nanogram (ng) amount of HCV replicon total RNA. […]

HCV replicon GT1a_M28V = test: Cell-based HCV replicon assay, GT1a M28V; details: Hepatitis C virus, 72 h, read-out: GT1a_M28V EC90
Method: as §1, §6

[1] = replicon RNA level by real-time PCR, 3 days

Compound | EC90 (HCV replicon GT1a_Q30R) | EC90 (HCV replicon GT1a_L31V) | EC90 (HCV replicon GT1a_Y93H) | EC90 (HCV replicon GT1b_WT) | EC90 (HCV replicon GT2a) | EC90 (HCV replicon GT2b_31M) | EC90 (HCV replicon GT3a_WT) | EC90 (HCV replicon GT3a_Y93H) | EC90 (HCV replicon GT4) | EC90 (HCV replicon GT5) | EC90 (HCV replicon GT6) | EC90 (HCV replicon Gt1a_WT) | EC90 (HCV replicon GT1a_M28V) | EC90 (HCV replicon GT1b_WT; [1]) | EC90 (HCV replicon GT2a; [1])
COC(=O)N[C@H](C(=O)N1CCC[C@H]1c1ncc(-c2cc(F)c3c(c2)O[C@@H](c2ccc(C4CC4)s2)n2c-3cc3cc(-c4cnc([C@@H]5C[Si](C)(C)CN5C(=O)[C@@H](NC(=O)OC)C(C)C)[nH]4)ccc32)[nH]1)C(C)C [Compound 13] | 0.0328 nM | 0.0756 nM | 0.561 nM | 0.00118 nM | 0.00338 nM | 0.933 nM | 0.469 nM | 614 nM | 0.0015 nM | 0.0061 nM | 0.0108 nM |  |  |  | 
COC(=O)NC(C(=O)N1CCC[C@H]1c1ncc(-c2ccc3c(c2)cc2n3[C@H](c3cnc(C4CC4)s3)Oc3cc(-c4cnc([C@@H]5C[Si](C)(C)CN5C(=O)[C@@H](NC(=O)OC)C5CCCCC5)[nH]4)cc(F)c3-2)[nH]1)C(C)C (stereo partly drawn) [Compound 7] | 0.0039 nM | 0.0045 nM | 0.022 nM | 0.00244 nM | 0.00177 nM | 0.132 nM | 0.051 nM | 82 nM | 0.00147 nM | 0.0246 nM | 0.0906 nM |  |  |  | 
COC(=O)N[C@H](C(=O)N1CCC[C@H]1c1ncc(-c2cc(F)c3c(c2)O[C@@H](c2ccc(C4CC4)s2)n2c-3cc3cc(-c4cnc([C@@H]5C[Si](C)(C)CN5C(=O)[C@H](N)c5ccccc5)[nH]4)ccc32)[nH]1)C(C)C [Compound 17] | 0.896 nM | 1.76 nM | 6.18 nM |  |  | 5.33 nM | 3.28 nM | 765 nM | 0.0124 nM | 0.0527 nM | 0.105 nM | 0.00142 nM | 0.00192 nM | 0.00141 nM | 0.0582 nM
COC(=O)N[C@H](C(=O)N1CCC[C@H]1c1ncc(-c2cc(F)c3c(c2)O[C@@H](c2ccc(C4CC4)s2)n2c-3cc3cc(-c4cnc([C@@H]5C[Si](C)(C)CN5C(=O)[C@@H](NC(=O)OC)[C@@H]5CCOC(C)(C)C5)[nH]4)ccc32)[nH]1)C(C)C [Compound 15] | 0.0047 nM | 0.0075 nM | 0.185 nM | 0.00102 nM | 0.0021 nM | 0.314 nM | 0.173 nM | 442 nM | 0.00136 nM | 0.0065 nM | 0.0144 nM |  |  |  | 
COC(=O)NC(C(=O)N1C[Si](C)(C)C[C@H]1c1ncc(-c2ccc3c(c2)cc2n3[C@H](c3ccc(C4CC4)s3)Oc3cc(-c4cnc([C@@H]5CCCN5C(=O)[C@@H](NC(=O)OC)C(C)C)[nH]4)cc(F)c3-2)[nH]1)C1CCC(F)(F)CC1 (stereo partly drawn) [Compound 16] | 0.0285 nM | 0.0507 nM | 0.972 nM | 0.00184 nM | 0.00575 nM | 2.83 nM | 1.68 nM | 3690 nM | 0.00183 nM | 0.0173 nM | 0.0252 nM |  |  |  | 
COC(=O)N[C@H](C(=O)N1CCC[C@H]1c1ncc(-c2cc(F)c3c(c2)O[C@@H](c2cnc(C4CC4)s2)n2c-3cc3cc(-c4cnc([C@@H]5C[Si](C)(C)CN5C(=O)[C@@H](NC(=O)OC)[C@@H]5CCOC(C)(C)C5)[nH]4)ccc32)[nH]1)C(C)C [Compound 3] | 0.008 nM | 0.0097 nM | 0.079 nM | 0.001 nM | 0.00167 nM | 0.431 nM | 0.285 nM | 370 nM | 0.00112 nM | 0.0073 nM | 0.0076 nM |  |  |  | 
COC(=O)NC(C(=O)N1CCC[C@H]1c1ncc(-c2ccc3c(c2)cc2n3[C@H](c3cnc(C4CC4)s3)Oc3cc(-c4cnc([C@@H]5C[Si](C)(C)CN5C(=O)[C@@H](NC(=O)OC)C5CCC(F)(F)CC5)[nH]4)cc(F)c3-2)[nH]1)C(C)C (stereo partly drawn) [Compound 9] | 0.0247 nM | 0.026 nM | 0.29 nM | 0.00108 nM | 0.00243 nM | 4.24 nM | 2.24 nM | 322 nM | 0.00137 nM | 0.009 nM | 0.0109 nM |  |  |  | 
COC(=O)NC(C(=O)N1C[Si](C)(C)C[C@H]1c1ncc(-c2ccc3c(c2)cc2n3[C@H](c3ccc(C4CC4)s3)Oc3cc(-c4cnc([C@@H]5CCCN5C(=O)[C@@H](NC(=O)OC)C(C)C)[nH]4)cc(F)c3-2)[nH]1)C1CCOCC1 (stereo partly drawn) [Compound 14] | 0.0027 nM | 0.0062 nM | 0.02 nM | 0.00131 nM | 0.0042 nM | 0.038 nM | 0.018 nM | 175 nM | 0.00111 nM | 0.013 nM | 0.0842 nM |  |  |  | 
